{"source": "patent US8987285B2", "about": "“Pharmaceutical compositions, dosage forms and new forms of the compound of formula (I), and methods of use thereof” (Portola Pharmaceuticals, Inc., priority 2010, dated 2015)", "key": {"[1]": {"test": "Aqueous solubility of the free acid versus pH", "type": "physicochemical", "conditions": "aqueous buffer", "description": "[…]. […] In certain instances, the active agent is initially present at least partly in an ionized form. In certain other instances, the active agent is initially present in an un-ionized form."}, "[2]": {"test": "pKa, log P and log D of the compound of formula (II)", "type": "physicochemical", "description": "The pKa of the compound of formula (II) is about 3.3, with a log P of about 2.5 and log D (pH7.4) of about −1.6."}, "[3]": {"test": "Wettability: contact angle measurement with water on pressed powder", "type": "physicochemical", "conditions": "water, in ° (unit assumed)", "procedure": "Contact angel instrument: EasyDrop DSA15E (Krüss, Hamburg, Germany)\nSyringe: NE44, diameter of needle 0.5 mm (Krüss, Hamburg, Germany)\nThe powder was pressed (approx 50 mg powder, 3 tons, 2 min) in tablets and analyzed by contact angle measurement. The angel between the solid and the liquid is measured after 0 and up to 60 seconds using water.\nAll determinations used the above method and the limit for the standards measurements are well within the given limits."}, "[4]": {"test": "Pharmacokinetic Study 1: FMI tablets fasted/fed versus reference IR capsule, crossover, healthy adult volunteers", "type": "in vivo, human", "conditions": "for Geometric-mean ratio (Fed/Fasted) of AUCinf / Geometric-mean ratio (Fed/Fasted) of AUClast / Geometric-mean ratio (Fed/Fasted) of Cmax: high fat breakfast versus fasted", "protocol": "This was an open label, randomized, four-period, incomplete crossover, single center study in healthy adult volunteers. There were 4 treatments in the study: 3 doses of the FMI (given fasting or fed following a high-fat breakfast) and one reference IR capsule (given fed after a typical breakfast). The term “FMI” refers to the dosage form of Example 7 (30 mg FMI) or Example 8 (75 mg FMI).\nEach subject was randomized to 1 of 18 treatment sequences, each with 4 treatment periods (Table 27). The first treatment period consisted of 1 of the 3 doses of FMI given fed, and treatment periods 2 to 4 consisted of 1 dose of IR capsule (fed) and 2 of the 3 doses of the FMI given fasted. […] Each subject therefore had 2 fasting treatments with the FMI formulation, 1 fed treatment with the FMI formulation and a reference treatment (IR capsule). Seventy two subjects enrolled and were dosed in the study with 70 completers.\nThe study consisted of a 28-day screening period, four baseline periods (one before each treatment period), four treatment periods with a wash out period of a minimum of 5 days, followed by a study completion evaluation approximately 72 hours after the last drug administration. Subjects who met the eligibility criteria at screening were admitted to baseline evaluations. All baseline safety evaluation results were available prior to dosing.\nFor fasted administration, elinogrel was administered in the morning, following an overnight fast of at least 10 hours. Subjects continued to fast until 4 hours post-dose. For fed administration of FMI tablets, elinogrel was administered in the morning, within 30 minutes of a high fat breakfast (approximately 1000 calories). Subjects continued to fast until 4 hours post-dose. For fed administration of the reference (IR capsule), it was administered in the morning, within 30 minutes of a typical breakfast (approximately 500 calories). Subjects continued to fast until 4 hours post-dose.\nSubjects were admitted to the study site approximately 12 hours prior to dosing in each period for baseline evaluations. Following a single dose of elinogrel, PK assessments were taken up to 48 hours post dose and safety assessments were made for up to 72 hours.\nSubjects were domiciled for 24 hours post dosing for PK sample collection, at which time they were discharged from the study site. Subjects returned on the following 2 mornings for 48 hour PK and 72 hour safety samples. Following the 72 hour safety assessments of treatment period 4 (or in the case of subject discontinuation) subjects underwent study completion evaluations and were discharged from the study. […].\nThis was a three-period, four-treatment crossover study design with an add-on food effect period (Period 1).\nTreatment 1 (T1)=elinogrel 30 mg FMI dose fasting\nTreatment 2 (T2)=elinogrel 75 mg FMI dose fasting\nTreatment 3 (T3)=elinogrel 150 mg FMI dose fasting\nReference (R)=elinogrel 150 mg IR capsule dose fed (typical breakfast); Example 6 (Reference)\nFed treatment 1 (F1)=elinogrel 30 mg FMI dose fed (high fat breakfast)\nFed treatment 2 (F2)=elinogrel 75 mg FMI dose fed (high fat breakfast)\nFed treatment 3 (F3)=elinogrel 150 mg FMI dose fed (high fat breakfast)\nSubjects will received the following treatments in a randomized order: • Treatment (T1, F1) with IR (IR=immediate release) tablet of Example 7 containing pH-modifying alkalizing agent, 30 mg in fasted and fed state. • Treatment (T2, F2) with IR (IR=immediate release) tablet of Example 8 containing pH-modifying alkalizing agent, 75 mg in fasted and fed state • Treatment (R) with 2×IR (IR=immediate release) capsule of Example 6 (Reference): 2×75 mg (150 mg) in fed state. • Treatment (T3, F3) with 2×IR (IR=immediate release) tablet of Example 8 containing pH-modifying alkalizing agent, 2×75 mg (150 mg) in fasted and fed state.\nTo evaluate the food effect, the geometric mean ratio for PK parameters of the fed versus fasted for each dose level and its 90% CI was estimated as shown in Table 29 below."}}, "note": "Read-outs that look alike come from different tables or passages of the source.", "data": [{"molecule": "CNc1cc2[nH]c(=O)n(-c3ccc(NC(=O)NS(=O)(=O)c4ccc(Cl)s4)cc3)c(=O)c2cc1F", "note": "[compound of formula (II), elinogrel]", "values": [{"measurement": "solubility", "setting": "[1]; pH 1.0-7.4, read-out: aqueous solubility of the free acid form", "result": "< 100", "unit": "µg/mL"}, {"measurement": "solubility", "setting": "[1]; pH 8 or above, read-out: aqueous solubility", "result": "≥ 1000", "unit": "µg/mL"}, {"measurement": "LogP", "setting": "[2]", "result": "~2.5"}, {"measurement": "pKa", "setting": "[2]; first pKa", "result": "about 3.3"}, {"measurement": "logD", "setting": "[2]; pH 7.4, pH7.4", "result": "~-1.6"}, {"measurement": "pKa", "setting": "[2]; read-out: second pKa", "result": 10.3}, {"measurement": "Contact angle", "setting": "[3]; 0 sec", "result": 65.9}, {"measurement": "Contact angle", "setting": "[3]; 30 sec", "result": 60.8}, {"measurement": "Contact angle", "setting": "[3]; 60 sec", "result": 60.1}, {"measurement": "decrease of AUC by high fat meal", "setting": "[4]; 30 mg dose", "result": "44-52%"}, {"measurement": "decrease of Cmax by high fat meal", "setting": "[4]; 30 mg dose", "result": 58, "unit": "%"}, {"measurement": "decrease of AUC by high fat meal", "setting": "[4]; 75 mg dose", "result": "14-18%"}, {"measurement": "decrease of Cmax by high fat meal", "setting": "[4]; 75 mg dose", "result": 36, "unit": "%"}, {"measurement": "decrease of AUC by high fat meal", "setting": "[4]; 150 mg dose", "result": "29-30%"}, {"measurement": "decrease of Cmax by high fat meal", "setting": "[4]; 150 mg dose", "result": 48, "unit": "%"}, {"measurement": "Geometric-mean ratio (Fed/Fasted) of AUCinf", "setting": "[4]; FMI 30 mg", "result": 0.48}, {"measurement": "Geometric-mean ratio (Fed/Fasted) of AUClast", "setting": "[4]; FMI 30 mg", "result": 0.56}, {"measurement": "Geometric-mean ratio (Fed/Fasted) of Cmax", "setting": "[4]; FMI 30 mg", "result": 0.42}, {"measurement": "Geometric-mean ratio (Fed/Fasted) of AUCinf", "setting": "[4]; FMI 75 mg", "result": 0.86}, {"measurement": "Geometric-mean ratio (Fed/Fasted) of AUClast", "setting": "[4]; FMI 75 mg", "result": 0.82}, {"measurement": "Geometric-mean ratio (Fed/Fasted) of Cmax", "setting": "[4]; FMI 75 mg", "result": 0.64}, {"measurement": "Geometric-mean ratio (Fed/Fasted) of AUCinf", "setting": "[4]; FMI 150 mg", "result": 0.71}, {"measurement": "Geometric-mean ratio (Fed/Fasted) of AUClast", "setting": "[4]; FMI 150 mg", "result": 0.70}, {"measurement": "Geometric-mean ratio (Fed/Fasted) of Cmax", "setting": "[4]; FMI 150 mg", "result": 0.52}]}]}
